Reference: patent publication US4405743A, “Pyrazolylpyrimidine derivatives” (Hokko Chemical Industry Co., Ltd., priority 1981, dated 1983)
Converted amounts (≈) assume the structure as drawn. Read-outs that look alike come from different tables or passages of the source.

Assays:
Pyricularia oryzae [1] = assay type: in vivo, Pyricularia oryzae on rice plant (variety: Asahi); settings: rice blast, prevention; 200 ppm; 5 days after inoculation
Pyricularia oryzae [2] = assay type: in vivo, Pyricularia oryzae on rice plant (variety: Asahi); settings: rice blast, curative treatment; sprayed liquid 200 ppm; 5 days after spraying
Cochliobolus miyabeanus [3] = test: Effect of controlling rice brown spot, Experimental Example 3; assay type: in vivo, Cochliobolus miyabeanus on rice plant (variety: Asahi); settings: sprayed liquid 500 ppm, 5 days after inoculation
Sphaerotheca friliginea = test: Effect of controlling cucumber powdery mildew, Experimental Example 4; assay type: in vivo; settings: sprayed liquid 200 ppm, 10 days after inoculation
Procedure, shortened: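 First-leaf cucumber seedlings (Sagami Hanpaku) in pots were sprayed with test liquid at set concentrations, then spray-inoculated with spore suspension the next day. Lesion area (%) was scored 10 days post-inoculation and converted to a control value. Phytotoxicity was also rated.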

rice plant [4] = settings: blast prevention test, 200 ppm
rice plant [5] = settings: blast curative test, 200 ppm
rice plant [6] = tested on: rice plant
rice blast = settings: Annual Report of the Takeda's Research Institute, Vol. 24, pages 250-258 (1965); cited from earlier work
[7] = Annual Report of the Takeda's Research Institute, Vol. 24, pages 250-258 (1965); cited from earlier work
Alternaria padwikii = test: Antimicrobial activity (mycelium growth inhibition, PDA medium); assay type: cell-based; settings: 24° C., read-out: ED50 value
Description: (§1) Experimental Example 5 (Test for Antimicrobial Activity Against Various Plant Phathogenic Fungi)
(§2) 1 ml of an acetone solution of each of test compounds and 20 ml of the PDA medium (50° C.) to prepare media containing the chemical in different concentrations, followed by charging into a petri dish with a diameter of 9 cm where it was solidified flat. On the central portion of the chemical-containing medium was inoculated a fungus-containing medium a piece of ager black-containing mycelia which was obtained by punching by means of a cork borer the tip portion of mycelia of each test fungus which had been cultured in advance in the PDA medium, followed by cultivating at 24° C. Two to six days after the cultivation, the diameter of the mycelia was measured and mycelium growth inhibiting rate was calculated from a comparison with that of a non-treated plot. The mycelium growth inhibiting rate was plotted on a logarithmic probability paper to determine an ED50 value.

Botrytis cinerea = test: as above; assay type: cell-based; settings: 24° C., read-out: ED50 value
Description: as §1, §2

Curvularia sp. = test: as above; assay type: cell-based; settings: 24° C., read-out: ED50 value
Description: as §1, §2

Diaporthe citri = test: as above; assay type: cell-based; settings: 24° C., read-out: ED50 value
Description: as §1, §2

Endothia parasitica = test: as above; assay type: cell-based; settings: Cryphonectria parasitica, 24° C., read-out: ED50 value
Description: as §1, §2

Fusarium nivale = test: as above; assay type: cell-based; settings: Microdochium nivale, 24° C., read-out: ED50 value
Description: as §1, §2

Glomerella cingulata = test: as above; assay type: cell-based; settings: Colletotrichum gloeosporioides, 24° C., read-out: ED50 value
Description: as §1, §2

[8] = tested on: Helminthosporium gramineum; test: as above; assay type: cell-based; settings: 24° C., read-out: ED50 value
Description: as §1, §2

Mycosphaerella melonis = test: as above; assay type: cell-based; settings: 24° C., read-out: ED50 value
Description: as §1, §2

Pellicularia sasakii = test: as above; assay type: cell-based; settings: 24° C., read-out: ED50 value
Description: as §1, §2

Penicillium digitatum = test: as above; assay type: cell-based; settings: 24° C., read-out: ED50 value
Description: as §1, §2

Phizoctonia solani = test: as above; assay type: cell-based; settings: 24° C., read-out: ED50 value
Description: as §1, §2

Phoma lingam = test: as above; assay type: cell-based; settings: Plenodomus lingam, 24° C., read-out: ED50 value
Description: as §1, §2

Sclerotinia fructigena = test: as above; assay type: cell-based; settings: 24° C., read-out: ED50 value
Description: as §1, §2

Sclerotinia sclerotiorum = test: as above; assay type: cell-based; settings: 24° C., read-out: ED50 value
Description: as §1, §2

Cochliobolus miyabeanus [9] = test: as above; assay type: cell-based; settings: Bipolaris oryzae, read-out: ED50 value
Pyricularia oryzae [10] = test: microbe, parasite or virus in culture; assay type: cell-based; settings: read-out: ED50 value

Compound	Control Value (Pyricularia oryzae [1]) [%]	Control Value (Pyricularia oryzae [2]) [%]	Control Value (Cochliobolus miyabeanus [3]) [%]	Control Value (Sphaerotheca friliginea) [%]	Degree of chemical injury (rice plant [4])	Degree of chemical injury (rice plant [5])	IC50 (Alternaria padwikii) [µg/mL]	IC50 (Botrytis cinerea) [µg/mL]	IC50 (Curvularia sp.) [µg/mL]	IC50 (Diaporthe citri) [µg/mL]	IC50 (Endothia parasitica) [µg/mL]	IC50 (Fusarium nivale) [µg/mL]	IC50 (Glomerella cingulata) [µg/mL]	IC50 [8] [µg/mL]	IC50 (Mycosphaerella melonis) [µg/mL]	IC50 (Pellicularia sasakii) [µg/mL]	IC50 (Penicillium digitatum) [µg/mL]	IC50 (Phizoctonia solani) [µg/mL]	IC50 (Phoma lingam) [µg/mL]	IC50 (Sclerotinia fructigena) [µg/mL]	other results
Cc1cc(O)nc(-n2nc(C)cc2C)n1 [Comparative Chemical 1, 2-(3,5-dimethyl-1-pyrazolyl)-4-methyl-6-hydroxypyrimidine, reference compound]	75	70	75	53.2	5	5	–	–	–	–	–	–	–	–	–	–	–	–	–	–	Degree of chemical injury (rice plant [6]; 500 ppm): 5; Degree of chemical injury (cucumber plant; 200 ppm): 1; activity of controlling rice blast (rice blast): show an activity of controlling rice blast; chemical injury [7]: violent chemical injury
Cc1cc(C)n(-c2nc(O)cc(-c3ccccc3)n2)n1 [Comparative Chemical 2, 2-(3,5-dimethyl-1-pyrazolyl)-4-phenyl-6-hydroxypyrimidine, reference compound]	76	71	73	48.3	5	5	–	–	–	–	–	–	–	–	–	–	–	–	–	–	Degree of chemical injury (rice plant [6]; 500 ppm): 5; Degree of chemical injury (cucumber plant; 200 ppm): 1; activity of controlling rice blast (rice blast): show an activity of controlling rice blast; chemical injury [7]: violent chemical injury
Cc1cc(SC#N)nc(-n2nc(C)cc2C)n1 [Comparative Chemical 3, 2-(3,5-dimethyl-1-pyrazolyl)-4-methyl-6-thiocyanopyrimidine]	–	–	–	–	–	–	–	–	–	–	–	–	–	–	–	–	–	–	–	–	chemical injury [7]: violent chemical injury
Cc1cc(C)n(-c2ncc(C)c(Sc3ccccc3)n2)n1 [Compound 35]	84	95	92	100	0	0	1 (≈ 3.37 µM)	9.6 (≈ 32.4 µM)	1.8 (≈ 6.07 µM)	4.6 (≈ 15.5 µM)	6.8 (≈ 22.9 µM)	2.6 (≈ 8.77 µM)	9.6 (≈ 32.4 µM)	6.3 (≈ 21.3 µM)	2 (≈ 6.75 µM)	1.3 (≈ 4.39 µM)	0.8 (≈ 2.7 µM)	2.8 (≈ 9.45 µM)	4.6 (≈ 15.5 µM)	0.7 (≈ 2.36 µM)	IC50 (Sclerotinia sclerotiorum): 6.1 µg/mL (≈ 20.6 µM); IC50 (Cochliobolus miyabeanus [9]): 4.3 µg/mL (≈ 14.5 µM); IC50 (Pyricularia oryzae [10]): 0.2 µg/mL (≈ 0.675 µM); Degree of chemical injury (rice plant [6]; in vivo): 0; Degree of chemical injury (cucumber plant; in vivo): 0
Cc1cc(C)n(-c2nc(C)c(C)c(Oc3ccccc3)n2)n1 [Compound 38]	100	100	87	100	0	0	1.7 (≈ 5.78 µM)	8.8 (≈ 29.9 µM)	1.5 (≈ 5.1 µM)	3.8 (≈ 12.9 µM)	6.2 (≈ 21.1 µM)	2.7 (≈ 9.17 µM)	7.3 (≈ 24.8 µM)	3.2 (≈ 10.9 µM)	4 (≈ 13.6 µM)	1.2 (≈ 4.08 µM)	1.4 (≈ 4.76 µM)	2 (≈ 6.79 µM)	2.7 (≈ 9.17 µM)	1.6 (≈ 5.44 µM)	IC50 (Sclerotinia sclerotiorum): 3.6 µg/mL (≈ 12.2 µM); IC50 (Cochliobolus miyabeanus [9]): 2.8 µg/mL (≈ 9.51 µM); IC50 (Pyricularia oryzae [10]): 0.04 µg/mL (≈ 0.136 µM); Degree of chemical injury (rice plant [6]; in vivo): 0; Degree of chemical injury (cucumber plant; in vivo): 0
CCCCc1c(C)nc(-n2nc(C)cc2C)nc1OCC [Compound 41]	100	100	100	94	0	0	0.7 (≈ 2.43 µM)	4.5 (≈ 15.6 µM)	1.6 (≈ 5.55 µM)	2 (≈ 6.93 µM)	4.6 (≈ 16 µM)	0.2 (≈ 0.693 µM)	4.1 (≈ 14.2 µM)	2.8 (≈ 9.71 µM)	0.7 (≈ 2.43 µM)	1.1 (≈ 3.81 µM)	1.1 (≈ 3.81 µM)	1.4 (≈ 4.85 µM)	2.6 (≈ 9.02 µM)	1.5 (≈ 5.2 µM)	IC50 (Sclerotinia sclerotiorum): 3.8 µg/mL (≈ 13.2 µM); IC50 (Cochliobolus miyabeanus [9]): 1.4 µg/mL (≈ 4.85 µM); IC50 (Pyricularia oryzae [10]): 0.01 µg/mL (≈ 0.0347 µM); Degree of chemical injury (rice plant [6]; in vivo): 0; Degree of chemical injury (cucumber plant; in vivo): 0
CCCCc1c(C)nc(-n2nc(C)cc2C)nc1SCC [Compound 42]	100	100	100	92	0	0	0.7 (≈ 2.3 µM)	3.7 (≈ 12.2 µM)	1.4 (≈ 4.6 µM)	2.7 (≈ 8.87 µM)	3.8 (≈ 12.5 µM)	2 (≈ 6.57 µM)	4 (≈ 13.1 µM)	5.2 (≈ 17.1 µM)	0.9 (≈ 2.96 µM)	2 (≈ 6.57 µM)	2 (≈ 6.57 µM)	1.3 (≈ 4.27 µM)	3.2 (≈ 10.5 µM)	2.1 (≈ 6.9 µM)	IC50 (Sclerotinia sclerotiorum): 5.2 µg/mL (≈ 17.1 µM); IC50 (Cochliobolus miyabeanus [9]): 1.8 µg/mL (≈ 5.91 µM); IC50 (Pyricularia oryzae [10]): 0.02 µg/mL (≈ 0.0657 µM); Degree of chemical injury (rice plant [6]; in vivo): 0; Degree of chemical injury (cucumber plant; in vivo): 0
